Experiments:
PFK-1 = assay: kinase activity of PFK-1; assay type: biochemical; settings: 10 μM
H460 cells [1] = assay: Glycolysis assay (3H2O from 5-[3H]glucose) in H460 cells; assay type: cell-based, human; settings: H460, 10 μM 5MPN, 6-72 hours
Protocol: Cells growing in 6-well plates were incubated in 500 μl of complete medium containing 1 μCi of 5-[^3H]glucose per well for 60 min in 5% CO2 at 37° C. Media was collected, ^3H2O formed via glycolysis from the 5-[^3H]glucose measured and counts normalized as previously described. For example, the medium was then collected and centrifuged to pellet any suspended cells. To separate the ^3H2O formed via glycolysis from the 5-[^3H]glucose added to the medium, an evaporation technique in a sealed system was utilized. Briefly, 150 μl aliquots of medium were added to open tubes that were placed upright inside scintillation vials containing 1 ml of H2O. The scintillation vials were sealed, and the ^3H2O produced by glycolysis through enolase and released to the medium was allowed to equilibrate with the H2O in the outer vial for 48 h at 37° C. The amounts of ^3H2O that had diffused into the surrounding H2O was measured on a Tri-Carb 2910 liquid scintillation analyzer (Perkin Elmer) and compared with ^3H2O and 5-[^3H]glucose standards. Protein concentration was determined using the BCA assay and counts were normalized to protein concentration. All data are expressed as the mean±SD of three experiments. Statistical significance was assessed by the two-sample t test (independent variable).

H460 cells [2] = assay: ATP measurements in H460 cells; assay type: cell-based, human; settings: H460, 10 μM 5MPN, 6-72 hours
Protocol: Cells were lysed and intracellular ATP determined as described previously. For example, cells were washed (while still adherent) with cold PBS 1×, lysed with Passive Lysis Buffer (1×; Molecular Probes, Invitrogen) added directly to the plates, and immediately harvested by scraping. The lysates were flash frozen (to −80° C.) and thawed (to 37° C.) once to accomplish complete lysis and then centrifuged (at 4° C.) for 30 seconds to clear the lysates. Intracellular ATP levels were determined using a bioluminescence assay (Molecular Probes), utilizing recombinant firefly luciferase and its substrate, D-luciferin. The luminescence was read in a TD-20/20 luminometer (Turner Designs) at 560 nm. The ATP values were calculated using an ATP standard curve. The protein concentrations of the lysates were estimated using the BCA assay (Pierce Biotechnology) and ATP was expressed as pmol/μg protein. All data are expressed as the mean±SD of three experiments. Statistical significance was assessed by the two-sample t test (independent variable).

H460 cells [3] = assay: proliferation / viable cell count (trypan blue) of H460 cells; assay type: cell-based, human
Protocol: Cell Viability: Cells were incubated in 20% trypan blue (Sigma) for 5 minutes. Cells excluding trypan blue were counted using a standard hemocytometer (Hausser Scientific) to determine total numbers of viable cells. Data are expressed as mean±SD of three experiments. Proliferation Assays: H460 non-small cell lung cancer cells were plated in 24 well plates and exposed to increasing concentrations of the indicated inhibitors of Formula IV (FBR1-02 corresponds to [drawing 47] DMSO was used as vehicle. After 24, 48 and 72 hours of exposure, cells were detached and viable cells were counted by Trypan blue exclusion (representative counts at 48 hours shown).

H522 = assay: viable cell count of H522 cells; assay type: cell-based; settings: H522, 48 hours
Protocol: Cell Viability: Cells were incubated in 20% trypan blue (Sigma) for 5 minutes. Cells excluding trypan blue were counted using a standard hemocytometer (Hausser Scientific) to determine total numbers of viable cells. Data are expressed as mean±SD of three experiments.

H460 cells [4] = assay: cell cycle analysis by flow cytometry in H460 cells; assay type: cell-based, human
Protocol: Flow Cytometry: To measure apoptosis, cells were stained with annexin V and propidium iodide and examined as previously described. […] DMSO used as vehicle. For cell cycle experiments, cells were detached, washed with cold PBS and fixed in 70% ethanol (4° C. 30 minutes). The cells then were pelleted by centrifugation, resuspended in PBS containing PI and RNase A, incubated at 37° C. in the dark for 30 minutes and analyzed by flow cytometry (BD FACSCalibur). Data were analyzed using FlowJo software (TREE STAR Inc.). Results were calculated as the mean±SD of three experiments.

LLC xenografts [5] = assay: intratumoral F2,6BP in LLC xenografts; assay type: in vivo, C57BL/6 mice; settings: 120 mg/kg by gavage daily, 10 days
Protocol: F2,6BP measurements: Cells or tissues were prepared as previously described and F2,6BP content measured using a coupled enzyme reaction following the method of Van Schaftingen et at (Van Schaftingen E et al. A kinetic study of pyrophosphate: fructose-6-phosphate phosphotransferase from potato tubers. Application to a microassay of fructose 2,6-bisphosphate. Eur J Biochem 1982 December; 129(1): 191-5) and normalized to total cellular protein measured by the bicinchoninic acid assay (BCA, Thermo Scientific). […] In order to measure F2,6BP, cells were harvested, washed with PBS, lysed in NaOH/Tris acetate by heating at 80° C. and lysates neutralized to pH 7.2. F2,6BP content was measured using a coupled enzyme reaction following the method of Van Schaftingen et al (Eur J Biochem. 1982; 129(1): 191-195). The F2,6BP concentration was normalized to total cellular protein measured by the bicinchoninic acid assay (BCA, Thermo Scientific) All data are expressed as the mean±SD of three experiments. Statistical significance was assessed by the two-sample t test (independent variable).
At the end of the experiment, animals were euthanized, tumors removed and sections fixed in 10% formaldehyde for immunohistochemistry or snap-frozen in liquid nitrogen for analyses. […]

LLC xenografts [6] = assay: Ki67 immunohistochemistry of LLC xenografts; assay type: in vivo, C57BL/6 mice; settings: 120 mg/kg by gavage daily, two weeks
Protocol: Immunohistochemistry: Formalin-fixed, paraffin-embedded tissue sections were processed as previously described then incubated with anti-Ki-67 primary antibody (Abeam) overnight, followed by HRP-linked goat anti-rabbit secondary antibody (1:300. Pierce). Sections were developed with 3,3′-diaminobenzidine tetrahydrochloride, counterstained, scanned and analyzed with the positive pixel count algorithm as previously described. Data are depicted as % positive pixels/total pixels±SD.

[7] = H460 transfected with PFKFB4, 10 μM 5MPN, 24 hours

`COc1cccc2c(NCCCCCO[N+](=O)[O-])ccnc12` [5MPN, 5-[(8-methoxyquinolin-4-yl)amino]pentyl nitrate] was tested, and the “inhibition of PFK-1 kinase activity” value (PFK-1) was “no inhibition of kinase activity”, the glycolysis (H460 cells [1]) was “reduced” and the ATP (H460 cells [2]) was “reduced”. For the same compound, the cell proliferation (H460 cells [3]; H460, 24-72 hours) was “reduction in cell proliferation”, the “growth, viable cells” value (H460 cells [3]; H460, 48 hours) was “dose-dependent reduction in growth” and the “anti-proliferative effect with over-expression of PFKFB4” value (H460 cells [3]; [7]) was “protected”. For the same compound, the “growth, viable cells” value (H522) was “dose-dependent reduction in growth”, the “cell cycle distribution (G1, S, G2)” value (H460 cells [4]; H460, 10 μM 5MPN) was “marked G1 arrest” and the “G1 arrest with over-expression of PFKFB4” value (H460 cells [4]; [7]) was “reversed”. The “intratumoral F2,6BP” value (LLC xenografts [5]) was “marked reduction” and the “Ki67-positive cells in LLC xenografts” value (LLC xenografts [6]) was “reduction in Ki67-positive cells”.

From patent US12377087B2, “Compounds for the treatment of cancer” (UNIVERSITY OF LOUISVILLE RESEARCH FOUNDATION, INC., priority 2015, dated 2025)
